Like-named read-outs stand apart in the source and are kept apart here.
Molecular target: T1, hT1R1/hT1R3 umami receptor (Homo sapiens, UniProt Q7RTX0+Q7RTX1)
T1 construct: expressed in transfected cells; host or cells: HEK293 derivative stably expressing Gα15, clone I-17, expression induced with mifepristone
T1 sequence (Q7RTX1 21-841): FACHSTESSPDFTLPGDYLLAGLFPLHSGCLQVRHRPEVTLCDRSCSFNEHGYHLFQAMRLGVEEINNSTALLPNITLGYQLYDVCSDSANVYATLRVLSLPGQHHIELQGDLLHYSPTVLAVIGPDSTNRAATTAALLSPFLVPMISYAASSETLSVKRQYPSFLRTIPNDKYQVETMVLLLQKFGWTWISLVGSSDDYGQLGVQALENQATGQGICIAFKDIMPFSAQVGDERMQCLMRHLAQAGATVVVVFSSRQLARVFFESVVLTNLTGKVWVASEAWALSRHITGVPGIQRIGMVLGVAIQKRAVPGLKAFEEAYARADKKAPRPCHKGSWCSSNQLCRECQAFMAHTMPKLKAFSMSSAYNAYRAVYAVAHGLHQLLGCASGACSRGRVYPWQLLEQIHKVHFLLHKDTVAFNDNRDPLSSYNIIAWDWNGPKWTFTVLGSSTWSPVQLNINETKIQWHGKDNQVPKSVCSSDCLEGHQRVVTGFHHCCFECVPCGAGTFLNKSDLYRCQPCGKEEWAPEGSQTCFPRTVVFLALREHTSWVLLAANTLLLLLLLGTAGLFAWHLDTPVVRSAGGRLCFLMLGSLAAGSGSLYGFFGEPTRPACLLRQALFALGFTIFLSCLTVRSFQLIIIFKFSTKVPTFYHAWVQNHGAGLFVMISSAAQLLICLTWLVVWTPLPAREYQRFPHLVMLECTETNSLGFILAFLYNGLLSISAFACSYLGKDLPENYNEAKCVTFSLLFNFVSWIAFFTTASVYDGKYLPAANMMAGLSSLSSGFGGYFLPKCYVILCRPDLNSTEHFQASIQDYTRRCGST
T1 sequence (Q7RTX0 21-852): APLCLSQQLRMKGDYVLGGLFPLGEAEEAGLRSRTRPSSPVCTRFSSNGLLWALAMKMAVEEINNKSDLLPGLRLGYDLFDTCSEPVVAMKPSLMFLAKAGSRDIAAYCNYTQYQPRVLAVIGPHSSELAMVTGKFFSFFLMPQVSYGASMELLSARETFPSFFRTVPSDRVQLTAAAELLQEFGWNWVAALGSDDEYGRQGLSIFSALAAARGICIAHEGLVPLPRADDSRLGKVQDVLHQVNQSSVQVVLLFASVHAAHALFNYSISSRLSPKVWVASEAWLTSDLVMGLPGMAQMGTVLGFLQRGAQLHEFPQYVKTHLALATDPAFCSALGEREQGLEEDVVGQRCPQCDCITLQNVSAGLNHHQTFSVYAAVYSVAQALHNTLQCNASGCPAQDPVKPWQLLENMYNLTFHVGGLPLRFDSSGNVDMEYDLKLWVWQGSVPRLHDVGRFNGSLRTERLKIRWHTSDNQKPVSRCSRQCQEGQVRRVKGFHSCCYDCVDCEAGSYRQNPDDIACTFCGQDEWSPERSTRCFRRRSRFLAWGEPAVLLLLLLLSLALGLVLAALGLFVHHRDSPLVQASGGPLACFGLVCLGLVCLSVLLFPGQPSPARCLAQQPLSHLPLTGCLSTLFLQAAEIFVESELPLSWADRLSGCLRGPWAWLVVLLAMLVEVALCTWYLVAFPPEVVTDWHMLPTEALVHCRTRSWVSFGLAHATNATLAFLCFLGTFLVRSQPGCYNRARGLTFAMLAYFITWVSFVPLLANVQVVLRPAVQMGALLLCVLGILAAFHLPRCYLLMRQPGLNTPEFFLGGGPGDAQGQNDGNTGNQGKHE
Assay: In vitro hT1R1/hT1R3 umami taste receptor activation assay (FLIPR, dose response)
Format: cell-based
Description: In order to identify new savory flavoring agents and enhancers, including compounds with savory agonist and enhancer activities (dual activity), the compounds of Formula (I) were screened in primary assays and secondary assays including compound dose response and enhancement assay. In a primary assay for potential ability to modulate umami taste, amide compounds of Formula (I) that can be either savory flavoring agents in their own right or flavor enhancers of MSG are identified and scores of their activities are given as percentage of the maximum MSG intensity (%). In compound dose response, an EC50 is calculated to reflect the potency of the compound as a savory agonist or enhancer.
An HEK293 cell line derivative (See e.g., Chandrashekar, et al., Cell (2000) 100: 703-711) which stably expresses Gα15 and hT1R1/hT1R3 under an inducible promoter (see WO 03/001876 A2) was used to identify compounds with savory tasting properties.
For dose-responses analysis, stimuli were presented in duplicates at 10 different concentrations ranging from 1.5 nM to 30 μM. Activities were normalized to the response obtained with 60 mM monosodium glutamate, a concentration that elicits maximum receptor response. […] Identical results were obtained when analyzing the dose-response data using commercially available software for non-linear regression analysis such as GraphPad PRISM (San Diego, Calif.).

[1] = Table A, Umami Amides, read-out: Umami EC50
[2] = read-out: EC50 for activation of a hT1R1/hT1R3 umami receptor expressed in an HEK293 cell line
[3] = Table C, Umami Ureas, read-out: Umami EC50
[4] = Table D, Umami Acrylamides, read-out: Umami EC50

Compound: COC(=O)C(CCSC)NC(=O)c1cc2cc(OC)ccc2o1 (centres unmarked) [Example A14, methyl 2-(5-methoxybenzofuran-2-carboxamido)-4-(methylthio)butanoate]
- EC50 [1]: 1.14 µM

Compound: CCCC(CCC)NC(=O)c1ccc2ncccc2c1 [Example 101, N-(heptan-4-yl)quinoline-6-carboxamide]
- EC50 [2]: 3.2 µM

Compound: CCCC(C)NC(=O)c1ccc(OC)c(Cl)c1 (centres unmarked) [Example A80, 3-chloro-4-methoxy-N-(pentan-2-yl)benzamide]
- EC50 [1]: 0.47 µM

Compound: CCCC(CCC)NC(=O)c1ccc(OCCOC)c(C)c1 [Example 59, N-(heptan-4-yl)-4-(2-methoxyethoxy)-3-methylbenzamide]
- EC50 [2]: 0.21 µM

Compound: COC(=O)C(CC(C)C)NC(=O)c1cc2ccccc2o1 (stereo in doubt) [Example A5, 2-[(Benzofuran-2-carbonyl)-amino]-4-methyl-pentanoic acid methyl ester]
- EC50 [1]: 0.31 µM

Compound: CCCCC(NC(=O)c1ccc(OC)c(Cl)c1)C(=O)OC (centres unmarked) [Example A55, methyl 2-(3-chloro-4-methoxybenzamido)hexanoate]
- EC50 [1]: 0.12 µM

Compound: CCCCC(CCCC)NC(=O)c1ccc2c(c1)OCO2 [Example A41, N-(nonan-5-yl)benzo[d][1,3]dioxole-5-carboxamide]
- EC50 [1]: 0.7 µM

Compound: O=C(N[C@H]1CCCc2ccccc21)c1ccc2c(c1)OCO2 [Example A47, (S)-N-(1,2,3,4-tetrahydronaphthalen-1-yl)benzo[d][1,3]dioxole-5-carboxamide]
- EC50 [1]: 1.33 µM

Compound: CCCC(CCC)NC(=O)c1ccc2occc2c1 [Example 90, N-(heptan-4-yl)benzofuran-5-carboxamide]
- EC50 [2]: 1.19 µM

Compound: CCCC(NC(=O)c1cc2cc(OC)ccc2o1)C(C)C (centres unmarked) [Example A12, 5-methoxy-N-(2-methylhexan-3-yl)benzofuran-2-carboxamide]
- EC50 [1]: 1.13 µM

Compound: COC(=O)[C@@H](CC(C)C)NC(=O)c1cc(C)cc(C)c1 [Example A85, (R)-methyl 2-(3,5-dimethylbenzamido)-4-methylpentanoate]
- EC50 [1]: 0.53 µM

Compound: COc1ccc(CNC(=O)C(=O)NCCc2ccco2)c(OC)c1 [Example B1, N1-(2,4-dimethoxybenzyi)-N2-(2-(furan-2-yl)ethyl)oxalamide]
- EC50 (Table B, Umami Oxalamides, read-out: Umami EC50): 0.18 µM

Compound: COc1ccccc1NC(=O)NC1CCCCC1C (centres unmarked) [Example C12, 1-(2-methoxyphenyl)-3-(2-methylcyclohexyl)urea]
- EC50 [3]: 1.67 µM

Compound: CCCC(CCC)NC(=O)/C=C/c1ccc(OC)cc1 [Example D5, (E)-N-(heptan-4-yl)-3-(4-methoxyphenyl)acrylamide]
- EC50 [4]: 0.72 µM

Compound: CCCC(CCC)NC(=O)Nc1ccc2c(c1)OCO2 [Example C27, 1-(benzo[d][1,3]dioxol-5-yl)-3-(heptan-4-yl)urea]
- EC50 [3]: 0.54 µM

Compound: COc1ccc(/C=C/C(=O)N[C@@H](CO)Cc2ccccc2)cc1 [Example 81, N-(1-Benzyl-2-hydroxy-ethyl)-3-(4-methoxy-phenyl)-acrylamide]
- EC50 [2]: 1.1 µM

Compound: COC(=O)[C@@H](CC(C)C)NC(=O)c1ccc2ncccc2c1 [Example A37, (R)-methyl 4-methyl-2-(quinoline-6-carboxamido)pentanoate]
- EC50 [1]: 1.5 µM

Compound: CCCC(CCC)NC(=O)c1ccc2c(c1)OC(C)(C)O2 [Example 20, N-(heptan-4-yl)-2,2-dimethylbenzo[d][1,3]dioxole-5-carboxamide]
- EC50 [2]: 2.7 µM

Compound: CC(C)/C=C/C(=O)NC1CCCc2ccccc21 (centres unmarked) [Example 84, 4-Methyl-pent-2-enoic acid (1,2,3,4-tetrahydro-naphthalen-1-yl)-amide]
- EC50 [2]: 1.5 µM

Compound: Cc1ccc(C(=O)NC2CCCc3ccccc32)s1 (centres unmarked) [Example A39, 5-Methyl-thiophene-2-carboxylic acid (1,2,3,4-tetrahydro-naphthalen-1-yl) amide]
- EC50 [1]: 1.31 µM

Compound: CCOc1ccc(C(=O)N[C@H]2CCc3ccccc32)cc1C [Example A113, (S)-N-(2,3-dihydro-1H-inden-1-yl)-4-ethoxy-3-methylbenzamide]
- EC50 [1]: 0.85 µM

Compound: COc1ccc(C(=O)N[C@H](CC(C)C)c2nc(C)no2)cc1C [Example 55, (R)-4-methoxy-3-methyl-N-(3-methyl-1-(3-methyl-1,2,4-oxadiazol-5-yl)butyl)benzamide]
- EC50 [2]: 5.4 µM

Compound: CCCCC(NC(=O)c1ccc2c(c1)OCO2)C(=O)OC (centres unmarked) [Example A43, 2-[(Benzo[1,3]dioxole-5-carbonyl)-amino]-hexanoic acid methyl ester]
- EC50 [1]: 0.49 µM

Compound: CCC(COC)NC(=O)/C=C/c1ccc(OC)cc1 (centres unmarked) [Example D14, (E)-N-(1-methoxybutan-2-yl)-3-(4-methoxyphenyl)acrylamide]
- EC50 [4]: 1.43 µM

Compound: CCCC(COC)NC(=O)c1cc2cc(OC)ccc2o1 (centres unmarked) [Example A19, 5-methoxy-N-(1-methoxypentan-2-yl)benzofuran-2-carboxamide]
- EC50 [1]: 1.3 µM

Compound: C=Cc1ccc(C(=O)N[C@H]2CCCc3ccccc32)cc1 [Example A105, (S)-N-(1,2,3,4-tetrahydronaphthalen-1-yl)-4-vinylbenzamide]
- EC50 [1]: 1.38 µM

Compound: CCCC(CCC)NC(=O)Nc1ccccc1CC [Example C9, 1-(2-ethylphenyl)-3-(heptan-4-yl)urea]
- EC50 [3]: 1.42 µM

Compound: O=C(Nc1ccccc1Cl)NC1CCCc2ccccc21 (centres unmarked) [Example C7, 1-(2-chlorophenyl)-3-(1,2,3,4-tetrahydronaphthalen-1-yl)urea]
- EC50 [3]: 0.99 µM

Compound: CC(C)/C=C/C(=O)NC1CCCCC1C (centres unmarked) [Example D12, (E)-4-methyl-N-(2-methylcyclohexyl)pent-2-enamide]
- EC50 [4]: 1.28 µM

Compound: COc1ccc(C(=O)NC(C)c2ccc(C)cc2)cc1Cl (centres unmarked) [Example A100, 3-chloro-4-methoxy-N-(1-p-tolylethyl)benzamide]
- EC50 [1]: 1.1 µM

Compound: CCCC(NC(=O)c1ccc2c(c1)OCO2)C(C)C (centres unmarked) [Example 3, N-(2-methylhexan-3-yl)benzo[d][1,3]dioxole-5-carboxamide]
- EC50 [2]: 0.61 µM

Compound: CCCC(CCC)NC(=O)c1cc2c(s1)CCC2 [Example A121, N-(heptan-4-yl)-5,6-dihydro-4H-cyclopenta[b]thiophene-2-carboxamide]
- EC50 [1]: 0.15 µM

Compound: CCC(CC(C)C)NC(=O)Nc1ccc2c(c1)OCO2 (centres unmarked) [Example C25, 1-(benzo[d][1,3]dioxol-5-yl)-3-(5-methylhexan-3-yl)urea]
- EC50 [3]: 0.48 µM

Compound: CCc1ccc(CCNC(=O)c2ccc3c(c2)OCO3)cc1 [Example 112, Benzo[1,3]dioxole-5-carboxylic acid [2-(4-ethyl-phenyl)-ethyl]-amide]
- EC50 [2]: 3.86 µM

Compound: COC(=O)[C@@H](CC(C)C)NC(=O)c1ccc2[nH]ccc2c1 [Example A36, (R)-methyl 2-(1H-indole-5-carboxamido)-4-methylpentanoate]
- EC50 [1]: 1.01 µM
